Measurements published in US8030300B2, “Ligands for nicotinic acetylcholine receptors, and methods of making and using them” (priority 2003, dated 2011).
Where two headings read alike, the source gives them in different places.

How the values were obtained:
Test in all cases: biochemical
Format in all cases: binding
[1] = target: T1, receptors in rat forebrain (mainly α4β2) (Rattus norvegicus, UniProt P09483+P12390)
T1 construct: from tissue; host or cells: rat forebrain homogenate
Excerpt: (§1) In order to assess the steric and hydropathic effects of the C-5 substituents of the pyridine on the binding affinity and subtype-selectivity at neuronal nicotinic acetylcholine receptors. […] The binding affinity ratios for a ligand, calculated from its affinities at an α subunit paired with either the β2 osubunit or the β4 subunit, represents a measure of the selectivity of that ligand with regard to the β subunits.
In Vitro Inhibition of ^3H-Epibatidin Binding
The high affinity binding site for ^3H-epibatidin is most certainly binding to the α4β2 subtype of nicotinic receptors. The identity of the low affinity site is still believed to be unknown.
Tissue preparation: Preparations may be performed at 0-4° C. unless otherwise indicated. […] The tissue suspension may then be centrifuged at 27,000×g for 10 min. The supernatant is then discarded and the pellet may then be washed three times by centrifugation at 27,000×g for 10 min in 20 mL fresh buffer, and the final pellet may be resuspended in fresh buffer (400 mL per g of original tissue) and used for binding assays.
Assay: Aliquots of 2.0 mL homogenate may be added to 0.100 mL of test solution and 0.100 mL of ^3H-epibatidin (0.3 nM, final concentration), mixed and incubated for 60 min at room temperature. […] The amount of radioactivity on the filters may be determined by conventional liquid scintillation counting. Specific binding is total binding minus non-specific binding.

α4β4 nAChR subtype = target: T2, α4β4 nAChR subtype (Rattus norvegicus, UniProt P09483+P12392)
T2 construct: expressed in transfected cells
T2 sequence (P12392 21-495): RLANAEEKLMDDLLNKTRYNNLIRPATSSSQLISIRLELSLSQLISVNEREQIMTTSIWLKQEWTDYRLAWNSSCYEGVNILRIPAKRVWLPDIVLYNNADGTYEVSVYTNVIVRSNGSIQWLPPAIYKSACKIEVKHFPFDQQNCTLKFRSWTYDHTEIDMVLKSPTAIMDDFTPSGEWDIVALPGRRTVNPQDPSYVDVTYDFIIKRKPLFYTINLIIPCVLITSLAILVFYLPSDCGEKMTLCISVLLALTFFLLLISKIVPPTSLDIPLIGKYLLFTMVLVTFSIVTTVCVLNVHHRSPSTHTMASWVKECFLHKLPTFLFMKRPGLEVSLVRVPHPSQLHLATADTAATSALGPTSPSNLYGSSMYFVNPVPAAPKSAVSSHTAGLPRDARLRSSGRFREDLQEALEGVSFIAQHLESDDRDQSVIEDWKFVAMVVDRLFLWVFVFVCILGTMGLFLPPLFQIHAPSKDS
T2 sequence (P09483 31-630): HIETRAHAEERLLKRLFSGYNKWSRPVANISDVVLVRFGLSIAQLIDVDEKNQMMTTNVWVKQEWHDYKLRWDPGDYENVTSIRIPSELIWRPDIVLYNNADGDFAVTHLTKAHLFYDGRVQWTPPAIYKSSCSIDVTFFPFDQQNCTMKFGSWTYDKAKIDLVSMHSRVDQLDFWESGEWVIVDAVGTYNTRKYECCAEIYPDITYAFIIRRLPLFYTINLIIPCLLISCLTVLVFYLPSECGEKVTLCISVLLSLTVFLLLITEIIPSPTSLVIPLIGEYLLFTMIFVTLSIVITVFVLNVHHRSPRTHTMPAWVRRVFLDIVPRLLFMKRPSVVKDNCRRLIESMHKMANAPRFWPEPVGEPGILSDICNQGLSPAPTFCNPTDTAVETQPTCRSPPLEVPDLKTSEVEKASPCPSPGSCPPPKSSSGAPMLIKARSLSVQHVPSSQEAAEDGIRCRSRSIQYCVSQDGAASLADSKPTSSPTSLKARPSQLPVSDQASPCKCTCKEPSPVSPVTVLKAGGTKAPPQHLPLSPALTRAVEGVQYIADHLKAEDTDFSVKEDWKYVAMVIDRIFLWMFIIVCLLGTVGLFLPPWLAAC
Excerpt: as §1

α3β2 nAChR subtype = target: T3, α3β2 nAChR subtype (Rattus norvegicus, UniProt P04757+P12390)
T3 construct: expressed in transfected cells
T3 sequence (P12390 25-500): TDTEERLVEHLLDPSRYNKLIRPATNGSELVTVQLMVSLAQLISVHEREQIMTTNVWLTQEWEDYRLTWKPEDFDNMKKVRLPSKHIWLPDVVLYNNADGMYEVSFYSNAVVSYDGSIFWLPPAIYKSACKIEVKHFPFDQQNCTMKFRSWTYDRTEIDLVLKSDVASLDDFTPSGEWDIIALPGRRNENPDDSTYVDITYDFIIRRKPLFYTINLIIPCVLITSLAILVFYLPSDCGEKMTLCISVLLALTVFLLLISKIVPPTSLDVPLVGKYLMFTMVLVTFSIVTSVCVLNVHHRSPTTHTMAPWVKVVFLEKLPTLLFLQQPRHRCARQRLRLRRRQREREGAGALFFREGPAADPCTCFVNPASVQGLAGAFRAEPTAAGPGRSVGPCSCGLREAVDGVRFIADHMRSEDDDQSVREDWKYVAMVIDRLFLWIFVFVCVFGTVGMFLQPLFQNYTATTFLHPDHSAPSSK
T3 sequence (P04757 26-499): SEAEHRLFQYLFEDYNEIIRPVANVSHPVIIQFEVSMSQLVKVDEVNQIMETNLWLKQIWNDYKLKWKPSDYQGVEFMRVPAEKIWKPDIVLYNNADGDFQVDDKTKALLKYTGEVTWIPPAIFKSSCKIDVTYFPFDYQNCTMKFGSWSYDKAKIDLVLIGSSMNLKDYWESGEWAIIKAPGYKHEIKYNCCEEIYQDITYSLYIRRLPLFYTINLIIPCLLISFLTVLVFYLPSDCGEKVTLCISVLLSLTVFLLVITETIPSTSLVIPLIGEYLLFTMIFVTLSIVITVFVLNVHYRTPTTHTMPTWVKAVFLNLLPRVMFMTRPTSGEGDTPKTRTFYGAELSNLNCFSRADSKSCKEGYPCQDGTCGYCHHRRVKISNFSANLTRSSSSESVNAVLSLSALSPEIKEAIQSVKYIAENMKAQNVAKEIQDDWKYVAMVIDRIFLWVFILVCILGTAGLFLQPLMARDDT
Excerpt: as §1

α4β2 nAChR subtype = target: T4, α4β2 nAChR subtype (Rattus norvegicus, UniProt P09483+P12390)
T4 construct: expressed in transfected cells
T4 sequence (P12390 25-500): as the sequence (P12390 25-500) above
T4 sequence (P09483 31-630): as the sequence (P09483 31-630) above
Excerpt: as §1

α2β4 nAChR subtype = target: T5, α2β4 nAChR subtype (Rattus norvegicus, UniProt P12389+P12392)
T5 construct: expressed in transfected cells
T5 sequence (P12389 28-511): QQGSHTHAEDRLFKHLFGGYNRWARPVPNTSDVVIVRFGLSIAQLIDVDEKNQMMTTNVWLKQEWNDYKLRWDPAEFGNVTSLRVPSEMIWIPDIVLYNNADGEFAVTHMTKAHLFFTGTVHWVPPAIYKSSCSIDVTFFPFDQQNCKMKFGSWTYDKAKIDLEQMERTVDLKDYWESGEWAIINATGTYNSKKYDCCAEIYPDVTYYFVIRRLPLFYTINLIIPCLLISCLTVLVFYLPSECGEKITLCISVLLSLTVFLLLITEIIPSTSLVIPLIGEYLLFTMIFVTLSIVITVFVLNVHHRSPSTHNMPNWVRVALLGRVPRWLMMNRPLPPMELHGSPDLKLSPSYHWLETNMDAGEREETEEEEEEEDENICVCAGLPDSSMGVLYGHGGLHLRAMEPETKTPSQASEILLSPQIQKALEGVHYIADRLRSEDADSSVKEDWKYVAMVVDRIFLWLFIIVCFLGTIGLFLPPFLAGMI
T5 sequence (P12392 21-495): as the sequence (P12392 21-495) above
Excerpt: as §1

α3β4 nAChR subtype = target: T6, α3β4 nAChR subtype (Rattus norvegicus, UniProt P04757+P12392)
T6 construct: expressed in transfected cells
T6 sequence (P04757 26-499): as the sequence (P04757 26-499) above
T6 sequence (P12392 21-495): as the sequence (P12392 21-495) above
Excerpt: as §1

α2β2 nAChR subtype = target: T7, α2β2 nAChR subtype (Rattus norvegicus, UniProt P12389+P12390)
T7 construct: expressed in transfected cells
T7 sequence (P12390 25-500): as the sequence (P12390 25-500) above
T7 sequence (P12389 28-511): as the sequence (P12389 28-511) above
Excerpt: as §1

[2] = Ki α4β2*, Table 5, *Rat forebrain, mainly α4β2
[3] = Ki α4β4, Table 5, rat nAChR subtypes
[4] = Ki α3β2, Table 5, rat nAChR subtypes
[5] = Ki α4β2, Table 5, rat nAChR subtypes
[6] = Ki α2β4, Table 5, rat nAChR subtypes
[7] = Ki α3β4, Table 5, rat nAChR subtypes
[8] = Ki α2β2, Table 5, rat nAChR subtypes
[9] = Table 5, *Rat forebrain, mainly α4β2, read-out: Ki α4β2*
[10] = Table 5, rat nAChR subtypes, read-out: Ki α4β4
[11] = Table 5, rat nAChR subtypes, read-out: Ki α3β2
[12] = Table 5, rat nAChR subtypes, read-out: Ki α4β2
[13] = Table 5, rat nAChR subtypes, read-out: Ki α2β4
[14] = Table 5, rat nAChR subtypes, read-out: Ki α3β4
[15] = Table 5, rat nAChR subtypes, read-out: Ki α2β2

T1 sequence (P09483 31-630): as the sequence (P09483 31-630) above
T1 sequence (P12390 25-500): as the sequence (P12390 25-500) above

Compound | Ki [1, 2] [nM] | Ki (α4β4 nAChR subtype; [3]) [nM] | Ki (α3β2 nAChR subtype; [4]) [nM] | Ki (α4β2 nAChR subtype; [5]) [nM] | Ki (α2β4 nAChR subtype; [6]) [nM] | Ki (α3β4 nAChR subtype; [7]) [µM] | Ki (α2β2 nAChR subtype; [8]) [nM] | other results
Clc1cc2c(cn1)C1(CC2)CC2CCC1N2 (centres unmarked) [Ligand 58a] | 54400 | 10200 | 16000 | 28000 | 11600 | 36.7 | 12800 | Ki (α4β4 nAChR subtype; Table 3, mean ± SEM of 3 (nicotine, 1: 3 to 6) independent measurements, read-out: Ki α4β4): 10500 nM; Ki (α3β2 nAChR subtype; Table 3, mean ± SEM of 3 (nicotine, 1: 3 to 6) independent measurements, read-out: Ki α3β2): 19700 nM; Ki (α4β2 nAChR subtype; Table 3, mean ± SEM of 3 (nicotine, 1: 3 to 6) independent measurements, read-out: Ki α4β2): 29200 nM; Ki (α2β4 nAChR subtype; Table 3, mean ± SEM of 3 (nicotine, 1: 3 to 6) independent measurements, read-out: Ki α2β4): 10700 nM; Ki (α3β4 nAChR subtype; Table 3, mean ± SEM of 3 (nicotine, 1: 3 to 6) independent measurements, read-out: Ki α3β4): 14.9 µM; Ki (α2β2 nAChR subtype; Table 3, mean ± SEM of 3 (nicotine, 1: 3 to 6) independent measurements, read-out: Ki α2β2): 12600 nM
Hexane-1,3-N,N′-bisepibatidine [Ligand 59c] | – | – | – | – | – | – | – | Ki [1, 9]: 14.2 nM; Ki (α4β4 nAChR subtype; [10]): 31.9 nM; Ki (α3β2 nAChR subtype; [11]): 6.61 nM; Ki (α4β2 nAChR subtype; [12]): 7.2 nM; Ki (α2β4 nAChR subtype; [13]): 37.4 nM; Ki (α3β4 nAChR subtype; [14]): 0.0647 µM; Ki (α2β2 nAChR subtype; [15]): 4.12 nM
CN1CCC[C@H]1COc1cncc(C#CCNC(=O)OC(C)(C)C)c1 [Ligand 13] | – | – | – | – | – | – | – | Ki [1]: 3.71 nM; Ki (α4β4 nAChR subtype): 8280 nM; Ki (α3β2 nAChR subtype): 7.27 nM; Ki (α4β2 nAChR subtype): 2.07 nM; Ki (α2β4 nAChR subtype): 8240 nM; Ki (α3β4 nAChR subtype): 59.9 µM; Ki (α2β2 nAChR subtype): 1.19 nM
O=C1CC2CC(c3ccc(Cl)nc3)C1N2 (stereo not drawn) [Ligand 5, 2-exo-(2-Chloro-5-pyridyl)-7-azabicyclo[2.2.1]heptan-6-one] | 1350 | 3560 | 1500 | 2020 | 3240 | 8.87 | 1010 | –
Decane-1,3-N,N′-bisepibatidine [Ligand 59d] | – | – | – | – | – | – | – | Ki [1, 9]: 13.9 nM; Ki (α4β4 nAChR subtype; [10]): 18.7 nM; Ki (α3β2 nAChR subtype; [11]): 6.75 nM; Ki (α4β2 nAChR subtype; [12]): 10.3 nM; Ki (α2β4 nAChR subtype; [13]): 24.2 nM; Ki (α3β4 nAChR subtype; [14]): 0.0677 µM; Ki (α2β2 nAChR subtype; [15]): 5.78 nM
CCCCCC#Cc1ccc(C2CC3CCC2N3)cn1 (centres unmarked) [Ligand 34] | 52 | 61.8 | 19.8 | 67.7 | 67.4 | 0.0954 | 16.9 | –
OC1C2CCC(N2)C1c1ccc(Cl)nc1 (single isomer, unassigned) [Ligand 2] | 2060 | 515 | 1130 | 2370 | 617 | 1.17 | 814 | –
COC(=O)c1nc(Cl)ccc1C1CC2CCC1N2 (centres unmarked) [ZW-96] | 18400 | 46500 | 5510 | 7870 | 28100 | 10.7 | 5410 | –
OCCCCC#Cc1cncc(OC[C@@H]2CCCN2)c1 [Ligand 27, 5-(6-Hydroxy-1-hexynyl)-3-(2(S)-pyrrolidinylmethoxy)pyridine] | 1.15 | 778 | 2.69 | 0.665 | 835 | 16.1 | 1.51 | –
O=c1cccc2n1C[C@@H]1CNC[C@H]2C1 [Cytisine, reference compound] | – | – | – | – | – | – | – | Ki [1]: 2.57 nM; Ki (α4β4 nAChR subtype): 1.52 nM; Ki (α3β2 nAChR subtype): 8.06 nM; Ki (α4β2 nAChR subtype): 1.35 nM; Ki (α2β4 nAChR subtype): 3.51 nM; Ki (α3β4 nAChR subtype; [14]): 0.21 µM; Ki (α2β2 nAChR subtype): 0.571 nM
O[C@H]1C[C@H]2C[C@H](c3ccc(Cl)nc3)[C@@H]1N2 (relative stereo) [Ligand 9, 2-exo-(2-Chloro-5-pyridyl)-6-endo-hydroxyl-7-azabicyclo[2.2.1]heptane] | 4.11 | 5.57 | 1.36 | 0.916 | 5.85 | 0.0273 | 1.53 | –
